Results reported in patent publication US11745181B2, “Devices and methods for bioassay” (Unchained Labs, priority 2017, dated 2023).

Assays:
[1] = system: zebrafish larvae Tg(fli1:EGFP); experiment: High-resolution fluorescence-microscopy imaging of vessel sprouting and morphology in zebrafish larvae; format: in vivo; details: 0.1 μM, 1 μM, or 5 μM, replenished every 24 hours
Source text: In this example, green fluorescent zebrafish embryos were loaded into the fluidic chambers of μZMount, a non-limiting exemplary fluidic device with the structure provided in FIGS. 1-2 herein and dimensions that were within 5% of the target dimensions as provided herein with reference to the illustrative embodiment provided in FIGS. 1-2, and that includes a plurality of fluidic chambers having the features and within 5% of the target dimensions provided herein for the illustrative embodiment of FIGS. 2A-2B. […] These zebrafish were Tg(fli1:EGFP) and expressed enhanced GFP under the control of the fli1 promoter such that the entire vasculature fluoresces. The zebrafish embryos and larvae that developed therefrom, were visualized with high-resolution fluorescent microscopy.
Each different drug treatment was replenished every 24 hours, effectively dosing the zebrafish at 24, 48, 72, and 96 hours post initial drug treatment. The drug was added in a manner similar to replenishing the media. […]
Embryos were imaged at various time points while within the fluidic device, up to 5 dpf, using high-resolution fluorescence-microscopy. […]
Drug-mediated inhibition of intersegmental and subintestinal vessels sprouting was recorded using high-resolution fluorescence-microscopy.

[2] = system: zebrafish embryos Tg(fli1:EGFP); experiment: Heart rate measurement of zebrafish embryos/larvae in the μZMount fluidic device; format: in vivo; details: 0.1 μM, 1 μM, or 5 μM for 48 or 96 hours; compared with published literature
Protocol: Each different drug treatment was replenished every 24 hours, effectively dosing the zebrafish at 24, 48, 72, and 96 hours post initial drug treatment. The drug was added in a manner similar to replenishing the media. At 4 dpf, each larvae was moved into its respective second bioassay region by adding 10 μl of media to the sample chamber and aspirated out quickly from the first outlet. The yolk of the zebrafish at this age has depleted enough to allow the fish to flow into the second bioassay region.
Heart rate was measured for no less than five embryos per treatment at 48 hours post fertilization (hpf) and 96 hpf. Of the heart rates measured, three of them were recorded using video image capturing techniques for future evaluation. The heart rates were measured by visually inspecting the heart beat and counting the number of beats in 15 seconds and then multiplying by 4.

In the case of `Cc1cc(C)c(/C=C2\C(=O)Nc3ccccc32)[nH]1` [SU-5416], the dorsalization [1] was “concentration dependent dorsalization”, the “inhibition of intersegmental and subintestinal vessels sprouting (angiogenic development)” value ([1]; fluorescence microscopy) was “suppression of angiogenic development similar to published work” and the heart rates [2] was “within the normal range”.
